Measurements as given in article doi:10.1101/611376v1 (biorxiv, 2019).
pKd: −log10 of the molar value.

Biological target: human insulin (hINS) (Homo sapiens, UniProt P01308)
Experiment: isothermal titration calorimetry
Format: binding

Chain of human insulin (hINS) (P01308 25-54): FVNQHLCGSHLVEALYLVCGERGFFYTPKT
Chain of human insulin (hINS) (P01308 90-110): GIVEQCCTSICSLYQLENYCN

pKd: 4.89
Structure (SMILES): Oc1ccc(/C=C/c2cc(O)cc(O)c2)cc1 [resveratrol, trans-3,4,5-trihydroxystilbene]
